The NIST ThermoML archive (doi:10.1021/acs.jced.8b00387)
Numbers after ± are expanded uncertainties.

Assay: xn = mol fraction of the nth substance listed
Settings: for viscosity / mass density / speed of sound: 102 kPa, Liquid; for viscosity: Concentric cylinders viscometry; for mass density: Vibrating tube method; for speed of sound: Frequency=3 MHz, Single path-length method; for surface tension liquid-gas: 295 K, Pendant drop shape

CC(CC(C)(C)C)CC(C)(C)C [2,2,4,6,6-pentamethylheptane] + CCCCc1ccccc1
Settings | mass density [kg/m3] | speed of sound [m/s] | viscosity [mPa·s]
253.15 K, x2 = 0.1001 | 782.1 ± 2 | – | –
253.15 K, x2 = 0.1015 | – | – | 2.82 ± 0.06
253.15 K, x2 = 0.2 | 791.5 ± 2 | – | –
253.15 K, x2 = 0.2005 | – | – | 2.63 ± 0.06
253.15 K, x2 = 0.2999 | – | – | 2.49 ± 0.06
253.15 K, x2 = 0.3001 | 801 ± 2 | – | –
253.15 K, x2 = 0.4001 | – | – | 2.37 ± 0.06
253.15 K, x2 = 0.4006 | 811.2 ± 2 | – | –
253.15 K, x2 = 0.4996 | – | – | 2.28 ± 0.06
253.15 K, x2 = 0.5 | 822.2 ± 2 | – | –
253.15 K, x2 = 0.6 | – | – | 2.24 ± 0.06
253.15 K, x2 = 0.6002 | 834.1 ± 2 | – | –
253.15 K, x2 = 0.6999 | 846.8 ± 2 | – | 2.2 ± 0.06
253.15 K, x2 = 0.8 | – | – | 2.19 ± 0.06
253.15 K, x2 = 0.8009 | 860 ± 2 | – | –
253.15 K, x2 = 0.9 | 876.1 ± 2 | – | 2.21 ± 0.06
288.15 K, x2 = 0.1001 | 756.92 ± 0.73 | 1234.1 ± 1 | –
288.15 K, x2 = 0.2 | 765.57 ± 0.72 | 1245.3 ± 1 | –
288.15 K, x2 = 0.3001 | 774.88 ± 0.72 | 1257.1 ± 1 | –
288.15 K, x2 = 0.4006 | 784.92 ± 0.72 | 1270 ± 0.9 | –
288.15 K, x2 = 0.5 | 795.63 ± 0.72 | 1283.8 ± 0.9 | –
288.15 K, x2 = 0.6002 | 807.34 ± 0.71 | 1298.7 ± 0.9 | –
288.15 K, x2 = 0.6999 | 819.87 ± 0.71 | 1315 ± 0.8 | –
288.15 K, x2 = 0.8009 | 833.77 ± 0.71 | 1332.9 ± 0.8 | –
288.15 K, x2 = 0.9 | 848.29 ± 0.71 | 1352.1 ± 0.8 | –
293.15 K, x2 = 0.1001 | 753.25 ± 0.73 | 1214.1 ± 1 | –
293.15 K, x2 = 0.1015 | – | – | 1.24 ± 0.02
293.15 K, x2 = 0.2 | 761.88 ± 0.72 | 1225.4 ± 1 | –
293.15 K, x2 = 0.2005 | – | – | 1.18 ± 0.02
293.15 K, x2 = 0.2999 | – | – | 1.13 ± 0.02
293.15 K, x2 = 0.3001 | 771.17 ± 0.72 | 1237.2 ± 1 | –
293.15 K, x2 = 0.4001 | – | – | 1.08 ± 0.02
293.15 K, x2 = 0.4006 | 781.17 ± 0.72 | 1250 ± 0.9 | –
293.15 K, x2 = 0.4996 | – | – | 1.05 ± 0.02
293.15 K, x2 = 0.5 | 791.85 ± 0.72 | 1263.8 ± 0.9 | –
293.15 K, x2 = 0.6 | – | – | 1.02 ± 0.02
293.15 K, x2 = 0.6002 | 803.52 ± 0.71 | 1278.9 ± 0.9 | –
293.15 K, x2 = 0.6999 | 816.01 ± 0.71 | 1295 ± 0.8 | 1.01 ± 0.02
293.15 K, x2 = 0.8 | – | – | 0.995 ± 0.021
293.15 K, x2 = 0.8009 | 829.8 ± 0.71 | 1312.9 ± 0.8 | –
293.15 K, x2 = 0.9 | 844.33 ± 0.71 | 1332.1 ± 0.8 | 0.997 ± 0.021
303.15 K, x2 = 0.1001 | 745.91 ± 0.73 | 1175 ± 1 | –
303.15 K, x2 = 0.1015 | – | – | 1.07 ± 0.02
303.15 K, x2 = 0.2 | 754.49 ± 0.72 | 1186.5 ± 1 | –
303.15 K, x2 = 0.2005 | – | – | 1.03 ± 0.02
303.15 K, x2 = 0.2999 | – | – | 0.989 ± 0.021
303.15 K, x2 = 0.3001 | 763.72 ± 0.72 | 1198 ± 1 | –
303.15 K, x2 = 0.4001 | – | – | 0.951 ± 0.021
303.15 K, x2 = 0.4006 | 773.66 ± 0.72 | 1210.8 ± 0.9 | –
303.15 K, x2 = 0.4996 | – | – | 0.924 ± 0.021
303.15 K, x2 = 0.5 | 784.27 ± 0.72 | 1224.6 ± 0.9 | –
303.15 K, x2 = 0.6 | – | – | 0.904 ± 0.021
303.15 K, x2 = 0.6002 | 795.86 ± 0.71 | 1240.1 ± 0.9 | –
303.15 K, x2 = 0.6999 | 808.28 ± 0.71 | 1255.8 ± 0.8 | 0.887 ± 0.021
303.15 K, x2 = 0.8 | – | – | 0.874 ± 0.021
303.15 K, x2 = 0.8009 | 821.96 ± 0.71 | 1274.1 ± 0.8 | –
303.15 K, x2 = 0.9 | 836.41 ± 0.71 | 1292.8 ± 0.8 | 0.874 ± 0.021
313.15 K, x2 = 0.1001 | 738.55 ± 0.73 | 1136.7 ± 1 | –
313.15 K, x2 = 0.1015 | – | – | 0.92 ± 0.02
313.15 K, x2 = 0.2 | 747.07 ± 0.72 | 1148.4 ± 1 | –
313.15 K, x2 = 0.2005 | – | – | 0.89 ± 0.021
313.15 K, x2 = 0.2999 | – | – | 0.862 ± 0.021
313.15 K, x2 = 0.3001 | 756.25 ± 0.72 | 1159.8 ± 1 | –
313.15 K, x2 = 0.4001 | – | – | 0.837 ± 0.021
313.15 K, x2 = 0.4006 | 766.12 ± 0.72 | 1172.6 ± 0.9 | –
313.15 K, x2 = 0.4996 | – | – | 0.814 ± 0.021
313.15 K, x2 = 0.5 | 776.66 ± 0.72 | 1186.3 ± 0.9 | –
313.15 K, x2 = 0.6 | – | – | 0.798 ± 0.021
313.15 K, x2 = 0.6002 | 788.17 ± 0.71 | 1201.9 ± 0.9 | –
313.15 K, x2 = 0.6999 | 800.51 ± 0.71 | 1217.5 ± 0.8 | 0.781 ± 0.021
313.15 K, x2 = 0.8 | – | – | 0.77 ± 0.021
313.15 K, x2 = 0.8009 | 814.1 ± 0.71 | 1235.9 ± 0.8 | –
313.15 K, x2 = 0.9 | 828.46 ± 0.71 | 1254.4 ± 0.8 | 0.77 ± 0.021
323.15 K, x2 = 0.1001 | 731.16 ± 0.73 | 1099.4 ± 1 | –
323.15 K, x2 = 0.1015 | – | – | 0.813 ± 0.021
323.15 K, x2 = 0.2 | 739.61 ± 0.72 | 1111 ± 1 | –
323.15 K, x2 = 0.2005 | – | – | 0.784 ± 0.021
323.15 K, x2 = 0.2999 | – | – | 0.762 ± 0.021
323.15 K, x2 = 0.3001 | 748.74 ± 0.72 | 1122.4 ± 1 | –
323.15 K, x2 = 0.4001 | – | – | 0.735 ± 0.021
323.15 K, x2 = 0.4006 | 758.55 ± 0.72 | 1135.1 ± 0.9 | –
323.15 K, x2 = 0.4996 | – | – | 0.718 ± 0.021
323.15 K, x2 = 0.5 | 769.02 ± 0.72 | 1148.8 ± 0.9 | –
323.15 K, x2 = 0.6 | – | – | 0.703 ± 0.021
323.15 K, x2 = 0.6002 | 780.45 ± 0.72 | 1164.4 ± 0.9 | –
323.15 K, x2 = 0.6999 | 792.72 ± 0.71 | 1179.9 ± 0.8 | 0.692 ± 0.021
323.15 K, x2 = 0.8 | – | – | 0.682 ± 0.021
323.15 K, x2 = 0.8009 | 806.2 ± 0.71 | 1198.3 ± 0.8 | –
323.15 K, x2 = 0.9 | 820.47 ± 0.71 | 1216.8 ± 0.8 | 0.683 ± 0.021
333.15 K, x2 = 0.1001 | 723.71 ± 0.73 | 1063 ± 1 | –
333.15 K, x2 = 0.1015 | – | – | 0.715 ± 0.021
333.15 K, x2 = 0.2 | 732.11 ± 0.72 | 1074.5 ± 1 | –
333.15 K, x2 = 0.2005 | – | – | 0.692 ± 0.021
333.15 K, x2 = 0.2999 | – | – | 0.675 ± 0.021
333.15 K, x2 = 0.3001 | 741.19 ± 0.72 | 1086.1 ± 1 | –
333.15 K, x2 = 0.4001 | – | – | 0.653 ± 0.021
333.15 K, x2 = 0.4006 | 750.94 ± 0.72 | 1098.7 ± 0.9 | –
333.15 K, x2 = 0.4996 | – | – | 0.636 ± 0.021
333.15 K, x2 = 0.5 | 761.34 ± 0.72 | 1112.3 ± 0.9 | –
333.15 K, x2 = 0.6 | – | – | 0.627 ± 0.021
333.15 K, x2 = 0.6002 | 772.69 ± 0.72 | 1127.7 ± 0.9 | –
333.15 K, x2 = 0.6999 | 784.88 ± 0.71 | 1143.2 ± 0.8 | 0.617 ± 0.021
333.15 K, x2 = 0.8 | – | – | 0.61 ± 0.021
333.15 K, x2 = 0.8009 | 798.16 ± 0.71 | 1161.4 ± 0.8 | –
333.15 K, x2 = 0.9 | 812.44 ± 0.71 | 1180 ± 0.8 | 0.611 ± 0.021

Settings | surface tension liquid-gas [mN/m]
x2 = 0.1001 | 22 ± 0.3
x2 = 0.2 | 22.2 ± 0.3
x2 = 0.3001 | 22.7 ± 0.3
x2 = 0.4006 | 23.1 ± 0.3
x2 = 0.5 | 23.5 ± 0.3
x2 = 0.6002 | 24 ± 0.3
x2 = 0.6999 | 24.8 ± 0.3
x2 = 0.8009 | 25.7 ± 0.3
x2 = 0.8985 | 26.7 ± 0.3
